Patent publication US7943632B2, “High potency dopaminergic treatment of neurological impairment associated with brain injury” (NeuroHealing Pharmaceuticals, Inc., priority 2003, dated 2011)

Tests used:
[1] = test system: patients of post-traumatic brain injury vegetative state (VS) and minimally conscious state (MCS); experiment: Apomorphine open label study, Coma/Near Coma (CNC) Scale; format: in vivo, human
[2] = test system: patients of post-traumatic brain injury vegetative state (VS) and minimally conscious state (MCS); experiment: Apomorphine open label study, Disability Rating Scale; format: in vivo, human
[3] = test system: patients of post-traumatic brain injury vegetative state (VS) and minimally conscious state (MCS); experiment: Apomorphine open label study, Extended Glasgow Outcome Scale (GOS-E); format: in vivo, human
[4] = test system: patients of post-traumatic brain injury vegetative state (VS) and minimally conscious state (MCS); experiment: Apomorphine open label study, efficacy observations; format: in vivo, human
Description: The patients received the maximum tolerated dose, 12 to 16 hours per day, for up to 84 days (or shorter or longer as indicated). If the patient developed an adverse event, the dose was reduced or eliminated, according to the opinion of the attending physician. To prevent side effects from dopaminergic stimulation (such as nausea), domperidone was administered starting 24-72 hours (h) prior to initiation of the drug therapy.

[5] = test system: patients of post-traumatic brain injury vegetative state (VS) and minimally conscious state (MCS); conditions: in vivo
[6] = cited from earlier work
[7] = test system: D2-like dopamine receptors; conditions: cited from earlier work
[8] = cited from earlier work; remark: listed apart in the source
[9] = test system: patients of post-traumatic brain injury vegetative state (VS) and minimally conscious state (MCS); experiment: Apomorphine open label study, safety observations; conditions: Patient 02; approximately 4 months from the accident, dosing interrupted Day 47
[10] = test system: Patient 01, traumatic brain injury (TBI); experiment: Prior drug treatment in clinical history of Patient 01; format: in vivo, human; conditions: 15 mg/day for 12 days, before apomorphine study
[11] = Patient 01, Day 7 of s.c. apomorphine
[12] = Patient 01, Day 180, study termination
[13] = Patient 02, Day 7 of s.c. apomorphine
[14] = Patient 03, Day 7 of s.c. apomorphine
[15] = Patient 03, Day 180, treatment discontinued Day 84

CN1CCc2cccc3c2[C@H]1Cc1ccc(O)c(O)c1-3 [apomorphine, (R)-5,6,6a,7-tetrahydro-6-methyl-4H-dibenzo[de,g]quinolin-10,11-diol]
CNC ([1]; Patient 01, Day 0 (baseline)): 20 | CNC [1, 11]: 2 | CNC ([1]; Patient 01, Day 14): 0 | CNC ([1]; Patient 01, Day 21): 0 | CNC ([1]; Patient 01, Day 28): 0 | CNC ([1]; Patient 01, Day 42): 0 | CNC ([1]; Patient 01, Day 56): 0 | CNC ([1]; Patient 01, Day 70): 0 | CNC ([1]; Patient 01, Day 84): 0 | CNC [1, 12]: 0 | CNC ([1]; Patient 02, Day 0 (baseline)): 36 | CNC ([1]; Patient 02, Day 0 (baseline), listed as Apomorphine): 37 | CNC [1, 13]: 33 | CNC ([1]; Patient 02, Day 14): 24 | CNC ([1]; Patient 02, Day 21): 24 | CNC ([1]; Patient 02, Day 28): 24 | CNC ([1]; Patient 02, Day 42): 26 | CNC ([1]; Patient 03, Day 0 (baseline)): 33 | CNC [1, 14]: 22 | CNC ([1]; Patient 03, Day 14): 18 | CNC ([1]; Patient 03, Day 21): 12 | CNC ([1]; Patient 03, Day 28): 12 | CNC ([1]; Patient 03, Day 42): 16 | CNC ([1]; Patient 03, Day 56): 16 | CNC ([1]; Patient 03, Day 70): 12 | CNC ([1]; Patient 03, Day 84): 8 | CNC [1, 15]: 0 | DRS ([2]; Patient 01, Day 0 (baseline)): 21 | DRS [2, 11]: 13 | DRS ([2]; Patient 01, Day 14): 13 | DRS ([2]; Patient 01, Day 21): 12.5 | DRS ([2]; Patient 01, Day 28): 12.5 | DRS ([2]; Patient 01, Day 42): 12 | DRS ([2]; Patient 01, Day 56): 10.5 | DRS ([2]; Patient 01, Day 70): 10.5 | DRS ([2]; Patient 01, Day 84): 10 | DRS [2, 12]: 15 | DRS ([2]; Patient 02, Day 0 (baseline)): 26 | DRS [2, 13]: 24 | DRS ([2]; Patient 02, Day 14): 19 | DRS ([2]; Patient 02, Day 21): 22 | DRS ([2]; Patient 02, Day 28): 22 | DRS ([2]; Patient 03, Day 0 (baseline)): 23 | DRS [2, 14]: 22 | DRS ([2]; Patient 03, Day 14): 22 | DRS ([2]; Patient 03, Day 21): 22 | DRS ([2]; Patient 03, Day 28): 22 | DRS ([2]; Patient 03, Day 42): 22 | DRS ([2]; Patient 03, Day 56): 22 | DRS ([2]; Patient 03, Day 70): 22 | DRS ([2]; Patient 03, Day 84): 21 | DRS [2, 15]: 12 | GOS-E ([3]; Patient 01, Day 7): 3 | GOS-E ([3]; Patient 01, Day 14): 3 | GOS-E ([3]; Patient 01, Day 84): 3 | GOS-E [3, 12]: 3 | GOS-E ([3]; Patient 03, Day 84): 3 | GOS-E ([3]; Patient 03, baseline): 2 | Efficacy observation ([4]; Patient 01, Day 1, hours after initial dosing, 2 mg/h): moved right thumb to command | Efficacy observation ([4]; Patient 01, Day 2, 4 mg/h): moved limbs on command and answered yes/no questions | Efficacy observation ([4]; Patient 01, Day 3, 6 mg/h): Spoke by phone with sibling and named four friends in their room | Efficacy observation ([4]; Patient 01, Day 4, 8 mg/h): named objects and associated them with their function | Efficacy observation ([4]; Patient 01, Day 5, 8 mg/h): oriented to physician's last name and name of the institution | Effect of pump remaining off for two hours ([4]; Patient 01, Day 18): decrease in their awareness status | Time to regain “on” status after reconnection of the pump ([4]; Patient 01, Day 18): ≤ 15 min | Effect of attempt to discontinue the treatment ([4]; Patient 01, Day 84): regressed to an “off” state | Day of trial on which patient started to follow simple commands ([4]; Patient 02): 9 | Efficacy observation ([4]; Patient 02, first two weeks of drug administration, maintained until the bleeding event): improvement in the patient's consciousness state | Efficacy observation ([4]; Patient 03, Day 2): started to vocalize words | Efficacy observation ([4]; Patient 03, Day 62): started to clearly respond to commands, recognize family members, respond to their name and respond to their age | Effect of first attempt to discontinue drug ([4]; Patient 03, Day 84): maintained their motor and cognitive improvements | Overall efficacy on altered consciousness state ([4]; Patients 01, 02 and 03 after traumatic brain injury): effective at improving the altered consciousness state | Adverse event [5]: seizure | Adverse events [5]: agitation and fever | Dyskinesias and hallucinations after dose reduction [5]: disappeared | ECG and clinical labs [5]: no abnormal values | Tolerability of dose escalation ([5]; sc): well tolerated | Absorption and clearance ([6]; from subcutaneous tissues): rapidly and completely absorbed from subcutaneous tissues and is rapidly cleared | Absorption ([6]; parenterally administered): rapidly and completely absorbed | Affinity for D2-like dopamine receptors [7]: particularly high affinity | Incidence of psychological effects ([8]; compared with other dopaminergic agents): lower incidence of psychological effects | Injection site reaction ([8]; subcutaneous administration at a concentration of 10 mg/ml): nodule formation (panniculitis) may occur | Patient outcome [9]: died

COC(=O)C(c1ccccc1)C1CCCCN1 (stereo not drawn) [methylphenidate]
Response to treatment [10]: no response to treatment
